Tests used:
[1] = Transfer into each organ: carotenoid concentration in organs of cynomolgus monkeys (Test Example 3); format: in vivo; details: cynomolgus monkey
Procedure: As experimental animals, cynomolgus monkeys were used. Two cynomolgus monkeys were used, and an adonixanthin dosing solution was administered to one monkey (adonixanthin-administering monkey), while an astaxanthin dosing solution was administered to the other monkey (astaxanthin-administering monkey). As the dosing solutions, the dosing solutions obtained in Preparation Example 2 were used, and the dosing solutions at a dose such that the dose of adonixanthin or astaxanthin was 50 mg/kg body weight were administered once daily for 10 days (the day of initiation of administration of the dosing solutions was defined as day 1). As the administration method, a disposable catheter was inserted from the nasal cavity into the stomach, and the dosing solutions were injected into the stomach using a syringe. When the dosing solutions were collected into a syringe, the dosing solutions were collected while being stirred with a stirrer. The dose in each administration was calculated based on the latest body weight at each administration time point (the body weight was measured on the day of initiation of acclimation, the day of end of acclimation, the day of initiation of administration, and before administration on day 8 of administration using an electric balance (HP-40K or GP-40K, both of which are manufactured by A&D Company, Limited)). The administration time was 8:30 to 13:30.
During the administration period of the dosing solution, each cynomolgus monkey was fed about 108 g (about 12 g×9 pieces) of a pellet once daily at 14:00 to 16:00, and the feed remained by the feeding on the next day (for the day of administration, before administration) was recovered. Each cynomolgus monkey was fed tap water at libitum, and maintained on a 12-h light/dark cycle, at […], with a relative humidity of 50±20%.
After blood collection after the last administration of the dosing solutions, an aqueous solution of pentobarbital sodium (manufactured by Tokyo Chemical Industry Co., Ltd.) (64.8 mg/mL) was administered into the cephalic vein at a volume of 0.4 mL/kg body weight to perform anesthesia. After the body weight was measured, each cynomolgus monkey was euthanized by exsanguination, and the brain (cerebral cortex, cerebral medulla, cerebellum, midbrain, striatum putamen, striatum caudate nucleus, hippocampus, medulla oblongata, diencephalon), the heart, the spleen, the liver, the kidneys (right and left), and the retina were collected. Each organ thus collected was stored in a deep freezer (−70° C. or lower).
(§1) Each of the concentration of adonixanthin in each organ collected from the adonixanthin-administering monkey (concentration relative to the weight of each organ) and the concentration of astaxanthin in each organ collected from the astaxanthin-administering monkey (concentration relative to the weight of each organ) was measured. Specifically, each organ was homogenized, and extraction was repeated with acetone until no color occurred. Then, filtration through a filter was performed to evaporate acetone, and diethyl ether:hexane (2:8, v/v) was added to the solution to extract a carotenoid. Furthermore, evaporation to dryness was performed, and the residue was dissolved in acetone:hexane (2:8, v/v) and subjected to HPLC. As the HPLC device, a Hitachi L-6000 intelligent pump and an L-4250 UV-VIS detector were used. The measurement wavelength was 450 nm, and a column of 5 μm Cosmosil 5SL-II (inner diameter of 250×4.6 mm) (manufactured by Nacalai Tesque, Inc.) was used. As the mobile phase, acetone:hexane (2:8, v/v) was used, and measurement was performed at a flow rate of 1.0 mL/min.
Each of the concentration of adonixanthin in each organ collected from the adonixanthin-administering monkey and the concentration of astaxanthin in each organ collected from the astaxanthin-administering monkey is shown in Table 2.

[2] = Transfer into each organ: carotenoid concentration in organs of mice (Test Example 1); format: in vivo, ICR strain mice; details: 50 mg/kg orally once daily for 10 days; for concentration at 10 days: ICR, mouse, po, after last administration, mean
From the text: Adonixanthin was used as an asymmetric carotenoid, and astaxanthin was used as a symmetric carotenoid. As experimental animals, ICR strain mice were used. Fourteen (14) mice were used, and 4 mice each were assigned to the adonixanthin-administration group and the astaxanthin-administration group, and 6 mice were assigned to the control administration group. In grouping, each group was constituted so that the mean body weight in each group was as uniform as possible based on the body weight on the day before initiation of administration.
To each experimental group, each of adonixanthin, astaxanthin, and olive oil (product number 150-00276, manufactured by Wako Pure Chemical Industries, Ltd.) was orally administered. In the adonixanthin-administration group and the astaxanthin-administration group, adonixanthin and astaxanthin at a volume of 50 mg/kg body weight were orally administered once daily for 10 days (the day of initiation of administration of the dosing substances was defined as day 1) using a flexible stomach tube. In the control administration group, olive oil at a volume of 0.05 mL/kg body weight was orally administered once daily for 10 days using a flexible stomach tube.
During the administration period, the mice were fed ad libitum a pellet (CE-2, manufactured by CLEA Japan, Inc.) and tap water, and maintained on a 12-h light/dark cycle, at 23±3° C., with a relative humidity of 50±20%.
After blood collection after the last administration, the whole body was perfused with a heparinized lactated Ringer's solution under isoflurane anesthesia, followed by collection of the retina, the heart, the lung, the spleen, the liver, and the kidney. The collected organs were immediately frozen with liquid nitrogen, and were stored at −80° C.
as §1, with “adonixanthin-administration group” for “adonixanthin-administering monkey”, “astaxanthin-administration group” for “astaxanthin-administering monkey”
In HPLC, the concentration of astaxanthin was measured as a concentration of each of the cis isomer and the trans isomer.
Each of the concentration of adonixanthin in each organ collected from the adonixanthin-administration group and the concentration of astaxanthin in each organ collected from the astaxanthin-administration group is shown in Table 1. The measured value was expressed as mean. From each organ collected from the control administration group, neither adonixanthin nor astaxanthin were detected.

[3] = heart, read-out: Concentration in organ: Heart
[4] = kidney, read-out: Concentration in organ: Kidney
[5] = liver, read-out: Concentration in organ: Liver
[6] = lung, read-out: Concentration in organ: Lung
[7] = spleen, read-out: Concentration in organ: Spleen

In the case of `CC1=C(/C=C/C(C)=C/C=C/C(C)=C/C=C/C=C(C)/C=C/C=C(C)/C=C/C2=C(C)C(=O)C(O)CC2(C)C)C(C)(C)CC(O)C1` (stereo not drawn) [adonixanthin, 3,3′-dihydroxy-β,β-caroten-4-one], the “Transfer into and retention in each organ (summary of Table 2)” value ([1]; 50 mg/kg intragastric once daily for 10 days) is reported as “especially likely to be transferred into each organ and retained therein”, the concentration at 10 days ([1]; brain, cerebellum, oral, 50 mg/kg, 50 mg/kg intragastric once daily for 10 days, after last administration, read-out: Concentration in organ: Brain, Cerebellum) is reported as 57.5 ng/g and the concentration at 10 days ([1]; brain, cerebral cortex, oral, 50 mg/kg, 50 mg/kg intragastric once daily for 10 days, after last administration, read-out: Concentration in organ: Brain, Cerebral cortex) is reported as 48.9 ng/g. The concentration at 10 days ([1]; brain, cerebral medulla, oral, 50 mg/kg, 50 mg/kg intragastric once daily for 10 days, after last administration, read-out: Concentration in organ: Brain, Cerebral medulla) was 53.2 ng/g, the concentration at 10 days ([1]; brain, diencephalon, oral, 50 mg/kg, 50 mg/kg intragastric once daily for 10 days, after last administration, read-out: Concentration in organ: Brain, Diencephalon) was 77.1 ng/g and the concentration at 10 days ([1]; brain, hippocampus, oral, 50 mg/kg, 50 mg/kg intragastric once daily for 10 days, after last administration, read-out: Concentration in organ: Brain, Hippocampus) was 64 ng/g. For the same compound, the concentration at 10 days ([1]; brain, medulla oblongata, oral, 50 mg/kg, 50 mg/kg intragastric once daily for 10 days, after last administration, read-out: Concentration in organ: Brain, Medulla oblongata) was 27.6 ng/g, the concentration at 10 days ([1]; brain, midbrain, oral, 50 mg/kg, 50 mg/kg intragastric once daily for 10 days, after last administration, read-out: Concentration in organ: Brain, Midbrain) was 7.4 ng/g and the concentration at 10 days ([1]; brain, striatum caudate nucleus, oral, 50 mg/kg, 50 mg/kg intragastric once daily for 10 days, after last administration, read-out: Concentration in organ: Brain, Striatum Caudate nucleus) was 59.8 ng/g. For the same compound, the concentration at 10 days ([1]; brain, striatum putamen, oral, 50 mg/kg, 50 mg/kg intragastric once daily for 10 days, after last administration, read-out: Concentration in organ: Brain, Striatum Putamen) was 42.1 ng/g, the concentration at 10 days ([1]; heart, oral, 50 mg/kg, 50 mg/kg intragastric once daily for 10 days, after last administration, read-out: Concentration in organ: Heart) was 305 ng/g and the concentration at 10 days ([1]; kidney (left), oral, 50 mg/kg, 50 mg/kg intragastric once daily for 10 days, after last administration, read-out: Concentration in organ: Kidney (left)) was 1600 ng/g. It also gave a concentration at 10 days ([1]; kidney (right), oral, 50 mg/kg, 50 mg/kg intragastric once daily for 10 days, after last administration, read-out: Concentration in organ: Kidney (right)) of 1530 ng/g, a concentration at 10 days ([1]; liver, oral, 50 mg/kg, 50 mg/kg intragastric once daily for 10 days, after last administration, read-out: Concentration in organ: Liver) of 1120 ng/g and a concentration at 10 days ([1]; retina, oral, 50 mg/kg, 50 mg/kg intragastric once daily for 10 days, after last administration, read-out: Concentration in organ: Retina) of 689 ng/g. The concentration at 10 days ([1]; spleen, oral, 50 mg/kg, 50 mg/kg intragastric once daily for 10 days, after last administration, read-out: Concentration in organ: Spleen) was 5280 ng/g, the “Transfer into and retention in each organ (summary of Table 1)” value [2] was “especially likely to be transferred into each organ and retained therein” and the concentration at 10 days [2, 3] was 141 ng/g. The concentration at 10 days [2, 4] was 774 ng/g, the concentration at 10 days [2, 5] was 1930 ng/g and the concentration at 10 days [2, 6] was 1940 ng/g. For the same compound, the concentration at 10 days [2, 7] was 277 ng/g.

For `CC1=C(/C=C/C(C)=C/C=C/C(C)=C/C=C/C=C(C)/C=C/C=C(C)/C=C/C2=C(C)C(=O)C(O)CC2(C)C)C(C)(C)CC(O)C1=O` (stereo not drawn) [astaxanthin, 3,3′-dihydroxy-β,β-carotene-4,4′-dione], the “Transfer into and retention in each organ (summary of Table 2)” value ([1]; in vivo, 50 mg/kg) was “exist in each organ at a high concentration”, the concentration at 10 days ([1]; in vivo, 50 mg/kg, Concentration in organ: Brain, Cerebellum) was 14.4 ng/g and the concentration at 10 days ([1]; in vivo, 50 mg/kg, Concentration in organ: Brain, Cerebral cortex) was 4.8 ng/g. It also gave a concentration at 10 days ([1]; in vivo, 50 mg/kg, Concentration in organ: Brain, Cerebral medulla) of 8.3 ng/g, a concentration at 10 days ([1]; in vivo, 50 mg/kg, Concentration in organ: Brain, Diencephalon) of 5.2 ng/g and a concentration at 10 days ([1]; in vivo, 50 mg/kg, Concentration in organ: Brain, Hippocampus) of 7.1 ng/g. For the same compound, the concentration at 10 days ([1]; in vivo, 50 mg/kg, Concentration in organ: Brain, Medulla oblongata) was 8.3 ng/g, the concentration at 10 days ([1]; in vivo, 50 mg/kg, Concentration in organ: Brain, Midbrain) was 2.9 ng/g and the concentration at 10 days ([1]; in vivo, 50 mg/kg, Concentration in organ: Brain, Striatum Caudate nucleus) was 10.2 ng/g. The concentration at 10 days ([1]; in vivo, 50 mg/kg, Concentration in organ: Brain, Striatum Putamen) was 5 ng/g, the concentration at 10 days ([1]; in vivo, 50 mg/kg, Concentration in organ: Heart) was 15.7 ng/g and the concentration at 10 days ([1]; in vivo, 50 mg/kg, Concentration in organ: Kidney (left)) was 228 ng/g. It also gave a concentration at 10 days ([1]; in vivo, 50 mg/kg, Concentration in organ: Kidney (right)) of 231 ng/g, a concentration at 10 days ([1]; in vivo, 50 mg/kg, Concentration in organ: Liver) of 37.8 ng/g and a concentration at 10 days ([1]; in vivo, 50 mg/kg, Concentration in organ: Retina) of 24.4 ng/g. For the same compound, the concentration at 10 days ([1]; in vivo, 50 mg/kg, Concentration in organ: Spleen) was 88.8 ng/g, the “Transfer into and retention in each organ (summary of Table 1)” value [2] was “exist in each organ at a high concentration” and the concentration at 10 days [2, 3] was 124 ng/g. The concentration at 10 days [2, 4] was 84.6 ng/g, the concentration at 10 days [2, 5] was 109 ng/g and the concentration at 10 days [2, 6] was 106 ng/g. The concentration at 10 days [2, 7] was 87.8 ng/g.
